ChEMBL document CHEMBL5543112, “Discovery of CBPD-268 as an Exceptionally Potent and Orally Efficacious CBP/p300 PROTAC Degrader Capable of Achieving Tumor Regression” (J Med Chem, 2024)
pIC50: −log10 of the molar value. Active and inactive are the calls of the source. No cut-off for these calls is given here.

Key:
[1] = Volume of distribution at steady state in Sprague-Dawley rat at 1 mg/kg, iv measured upto 24 hrs by LC/MS-MS analysis; type: ADME, organism-based; conditions: in vivo, read-out: Vdss
[2] = Half life in Sprague-Dawley rat at 3 mg/kg, po measured upto 24 hrs by LC/MS-MS analysis; type: ADME, organism-based; conditions: in vivo
[3] = Cmax in ICR mouse at 3 mg/kg, po measured upto 24 hrs by LC/MS-MS analysis; type: ADME, organism-based; conditions: in vivo
[4] = Metabolic stability in rat plasma assessed as half life measured upto 120 mins by LC-MS/MS analysis; type: ADME, cell-free
[5] = Plasma protein binding in mouse by LC-MS analysis; type: ADME, cell-free; conditions: read-out: PPB (converted)
Cytochrome P450 3A4 = Cytochrome P450 3A4 (Homo sapiens, UniProt P08684); assay: Inhibition of CYP3A4 (unknown origin) using testosterone as substrate preincubated with compound for 5 mins followed by NADPH addition and measured after 20 mins by LC-MS/MS analysis; type: ADME
[6] = Drug distribution in SCID mouse plasma at 0.3 mg/kg, po measured at 6 hrs by LC-MS/MS analysis; type: ADME, organism-based
[7] = Drug distribution in SCID mouse plasma at 1 mg/kg, po measured at 24 hrs by LC-MS/MS analysis; type: ADME, organism-based
[8] = Drug distribution in SCID mouse plasma at 3 mg/kg, po measured at 24 hrs by LC-MS/MS analysis; type: ADME, organism-based
[9] = Drug distribution in SCID mouse tumor at 1 mg/kg, po measured at 1 hr by LC-MS/MS analysis; type: ADME, organism-based, Neoplasm; conditions: read-out: Ct
[10] = Drug distribution in SCID mouse tumor at 1 mg/kg, po measured at 6 hrs by LC-MS/MS analysis; type: ADME, organism-based, Neoplasm; conditions: read-out: Ct
[11] = Drug distribution in SCID mouse liver at 0.3 mg/kg, po measured at 24 hrs by LC-MS/MS analysis; type: ADME, organism-based; conditions: read-out: Ct
[12] = Drug distribution in SCID mouse liver at 3 mg/kg, po measured at 1 hr by LC-MS/MS analysis; type: ADME, organism-based; conditions: read-out: Ct
[13] = Drug distribution in SCID mouse liver at 3 mg/kg, po measured at 6 hrs by LC-MS/MS analysis; type: ADME, organism-based; conditions: read-out: Ct
[14] = Drug distribution in SCID mouse spleen at 3 mg/kg, po measured at 1 hr by LC-MS/MS analysis; type: ADME, organism-based; conditions: read-out: Ct
[15] = Drug concentration in SCID mouse plasma at 1 mg/kg, po measured at 24 hrs by LC-MS/MS analysis; type: ADME, organism-based
[16] = Drug concentration in SCID mouse tumor at 1 mg/kg, po measured at 6 hrs by LC-MS/MS analysis; type: ADME, organism-based, Neoplasm; conditions: read-out: Ct
[17] = Drug concentration in SCID mouse tumor at 1 mg/kg, po measured at 24 hrs by LC-MS/MS analysis; type: ADME, organism-based, Neoplasm; conditions: read-out: Ct
CWR22R [18] = assay: Antitumor activity against human 22Rv1 cells xenografted in SCID mouse assessed as reduction in BRD4 level in tumor at 1 to 3 mg/kg, po measured at 6 to 24 hrs by Western blotting analysis; type: functional, organism-based; conditions: dose 1-3 mg/kg, time 6-24 hrs
VCaP [19] = assay: Antitumor activity against human VCaP cells xenografted in SCID mouse assessed as tumor growth inhibition at 3 mg/kg, po administered for 4 week; type: functional; conditions: 672 h, time 4 weeks, read-out: TGI
VCaP [20] = assay: Antitumor activity against human VCaP cells xenografted in SCID mouse assessed as tumor regression at 1 mg/kg, po administered 3 times a week for 4 weeks; type: functional
[21] = Toxicity in SCID mouse xenografted with human VCaP cells assessed as loss of body weight at 1 to 3 mg/kg, po measured up to 48 days; type: organism-based; conditions: in vivo, 1152 h, dose 1-3 mg/kg, time < 48 day
VCaP [22] = assay: Antitumor activity against human VCaP cells xenografted in SCID mouse assessed as tumor growth inhibition at 0.3 mg/kg, po administered daily 5 times a week for 4 weeks; type: functional; conditions: 672 h, read-out: TGI
[23] = Toxicity in SCID mouse xenografted with human VCaP cells assessed as loss of body weight at 1 to 3 mg/kg, po administered daily 5 times a week for 4 weeks; type: organism-based; conditions: in vivo, 672 h, dose 1-3 mg/kg
CWR22R [24] = assay: Antitumor activity against human 22Rv1 cells xenografted in SCID mouse assessed as tumor growth inhibition at 0.3 mg/kg, po administered 5 times a week for 3 weeks; type: functional; conditions: 22Rv1, 504 h, read-out: TGI
[25] = Toxicity in SCID mouse xenografted with human 22Rv1 cells assessed as loss of body weight at 0.3 to 3 mg/kg, po administered upto 3 weeks; type: organism-based, CWR22R; conditions: in vivo, 504 h, dose 0.3-3 mg/kg
[26] = Toxicity in male BALB/c mouse assessed as body weight loss at 30 mg/kg, po administered twice a week for 5 to 6 weeks; type: organism-based; conditions: in vivo, time 5-6 weeks
[27] = Drug distribution in Sprague-Dawley rat kidney at 3 mg/kg, po measured at 24 hrs by LC-MS/MS analysis; type: ADME, organism-based; conditions: read-out: Ct
[28] = Drug distribution in Sprague-Dawley rat liver at 3 mg/kg, po measured at 1 hr by LC-MS/MS analysis; type: ADME, organism-based; conditions: read-out: Ct
[29] = Drug distribution in Sprague-Dawley rat liver at 3 mg/kg, po measured at 6 hrs by LC-MS/MS analysis; type: ADME, organism-based; conditions: read-out: Ct
[30] = Drug distribution in Sprague-Dawley rat liver at 10 mg/kg, po measured at 1 hr by LC-MS/MS analysis; type: ADME, organism-based; conditions: read-out: Ct
[31] = Drug distribution in Sprague-Dawley rat spleen at 3 mg/kg, po measured at 1 hr by LC-MS/MS analysis; type: ADME, organism-based; conditions: read-out: Ct
[32] = Drug distribution in Sprague-Dawley rat spleen at 3 mg/kg, po measured at 6 hrs by LC-MS/MS analysis; type: ADME, organism-based; conditions: read-out: Ct
[33] = Drug distribution in Sprague-Dawley rat spleen at 3 mg/kg, po measured at 24 hrs by LC-MS/MS analysis; type: ADME, organism-based; conditions: read-out: Ct
[34] = Drug distribution in Sprague-Dawley rat heart at 10 mg/kg, po measured at 6 hrs by LC-MS/MS analysis; type: ADME, organism-based; conditions: read-out: Ct
[35] = Toxicity in immune-competent Sprague-Dawley rat at 1 to 10 mg/kg, po administered twice a week for 5 weeks; type: organism-based; conditions: in vivo, 840 h, dose 1-10 mg/kg
[36] = Toxicity in immune-competent Sprague-Dawley rat assessed as change in monocyte at 1 to 10 mg/kg, po administered twice a week for 5 weeks; type: organism-based; conditions: in vivo, 840 h, dose 1-10 mg/kg
[37] = Toxicity in immune-competent Sprague-Dawley rat assessed as change in eosinophil at 1 to 10 mg/kg, po administered twice a week for 5 weeks; type: organism-based; conditions: in vivo, 840 h, dose 1-10 mg/kg
[38] = Toxicity in immune-competent Sprague-Dawley rat assessed as change in total protein level at 1 to 10 mg/kg, po administered twice a week for 5 weeks; type: organism-based; conditions: in vivo, 840 h, dose 1-10 mg/kg
[39] = Toxicity in immune-competent Sprague-Dawley rat assessed as change in alanine aminotransferase level at 1 to 10 mg/kg, po administered twice a week for 5 weeks; type: organism-based; conditions: in vivo, 840 h, dose 1-10 mg/kg
[40] = Toxicity in immune-competent Sprague-Dawley rat assessed as change in albumin level at 1 to 10 mg/kg, po administered twice a week for 5 weeks; type: organism-based; conditions: in vivo, 840 h, dose 1-10 mg/kg

Cytochrome P450 3A4, sequence (P08684 whole entry): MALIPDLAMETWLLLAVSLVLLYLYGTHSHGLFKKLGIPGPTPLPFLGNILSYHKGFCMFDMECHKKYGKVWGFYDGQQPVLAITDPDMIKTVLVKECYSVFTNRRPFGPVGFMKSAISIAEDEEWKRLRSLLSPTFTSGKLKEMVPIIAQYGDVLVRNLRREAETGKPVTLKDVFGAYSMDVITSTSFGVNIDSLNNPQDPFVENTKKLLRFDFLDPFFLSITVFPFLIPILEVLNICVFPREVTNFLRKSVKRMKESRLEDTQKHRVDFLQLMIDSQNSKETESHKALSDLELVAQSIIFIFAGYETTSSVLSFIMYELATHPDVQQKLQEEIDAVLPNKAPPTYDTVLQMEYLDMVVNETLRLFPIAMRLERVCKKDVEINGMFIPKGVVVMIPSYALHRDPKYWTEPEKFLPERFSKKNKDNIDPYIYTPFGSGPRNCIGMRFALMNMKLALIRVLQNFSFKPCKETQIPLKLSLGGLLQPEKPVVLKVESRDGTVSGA

## CC(=O)N1CCc2c(c(N3CCCc4cc(-c5cnn(C)c5)c(C(F)F)cc43)nn2[C@H]2CC[C@H](CN3Cc4cc5c(cc4C3)C(=O)N(C3CCC(=O)NC3=O)C5=O)CC2)C1 (stereo partly specified)
[1]
  Vd: 4.9 L/kg
[2]
  half-life: 1.3 h
[3]
  Cmax: 725 ng/mL
[4]
  half-life: 0.8 h
[5]
  fraction unbound: 0.016
Cytochrome P450 3A4
  pIC50: < 5.00
[6]
  concentration at 6 h: 12.7 ng/mL
[7]
  concentration at 24 h: 3.3 ng/mL
[8]
  concentration at 24 h: 12.7 ng/mL
[9]
  concentration at 1 h: 155 ng/g
[10]
  concentration at 6 h: 64.3 ng/g
[11]
  concentration at 24 h: 5.6 ng/mL
[12]
  concentration at 1 h: 3300 ng/mL
[13]
  concentration at 6 h: 1750 ng/mL
[14]
  concentration at 1 h: 937 ng/mL
[15]
  concentration at 24 h: 2.8 ng/mL
[16]
  concentration at 6 h: 12.6 ng/g
[17]
  concentration at 24 h: 6.3 ng/g
CWR22R [18]
  Activity: Active
VCaP [19]
  inhibition in vivo at 3 mg/kg: 57%
VCaP [20]
  Activity: 31%
[21]
  Activity: < 7%
VCaP [22]
  inhibition in vivo at 0.3 mg/kg: 84%
[23]
  Activity: > 8%
CWR22R [24]
  inhibition in vivo at 0.3 mg/kg: 56%
[25]
  Activity: Non-Toxic
[26]
  Activity: < 5%
[27]
  concentration at 24 h: 2.1 ng/g
[28]
  concentration at 1 h: 978 ng/g
[29]
  concentration at 6 h: 148 ng/g
[30]
  concentration at 1 h: 4100 ng/g
[31]
  concentration at 1 h: 832 ng/g
[32]
  concentration at 6 h: 112 ng/g
[33]
  concentration at 24 h: 8.1 ng/g
[34]
  concentration at 6 h: 83 ng/g
[35]
  Activity: Non-Toxic
[36]
  Activity: Non-Toxic
[37]
  Activity: Non-Toxic
[38]
  Activity: Non-Toxic
[39]
  Activity: Non-Toxic
[40]
  Activity: Non-Toxic
